This is an account of results in patent publication US7482472B2, “Substituted isoindoles and their use” (Bayer Healthcare AG, priority 2002, dated 2009).

Counter-ions that a name gives are not always drawn.

With `Cc1cccc(N2CCN(C(=O)CN3C(=O)c4cccc(NC(=O)c5ccc(Cl)s5)c4C3=O)CC2)n1` [Example 14], the melting point – broadly, the temperature, or range, at which the solid turns liquid – came to 241 °C.

Regarding `O=C(Nc1cccc2c1C(O)N(CC(=O)N1CCC(CO)CC1)C2=O)c1ccc(Cl)s1` (stereo not shown) [Example 90], the melting point was 234 °C (dec.).

The molecule `O=C(Nc1cccc2c1C(=O)N(CC(=O)N1CCN(CC(=O)N3CCCC3)CC1)C2=O)c1ccc(Cl)s1` [Example 19] yielded a melting point of 122 °C.

In turn, `O=C(Nc1cccc2c1C(=O)N(CC(=O)N1CCN(c3ccccn3)CC1)C2=O)c1ccc(Cl)s1` [Example 7] gave a melting point of 203 °C.

`N#Cc1ccc(N2CCN(C(=O)CN3C(=O)c4cccc(NC(=O)c5ccc(Cl)s5)c4C3=O)CC2)nc1` [Example 9]: the melting point is 169 °C (dec.).

Molecule `O=C(Nc1cccc2c1C(=O)N(CC(=O)N1CCC(CO)CC1)C2O)c1ccc(Cl)s1` (stereo not shown) [Example 89] yielded a melting point of 233 °C.

On to `N#Cc1nccnc1N1CCN(C(=O)CN2C(=O)c3cccc(NC(=O)c4ccc(Cl)s4)c3C2=O)CC1` [Example 13], for which the melting point worked out at 242 °C.

On to `O=C(Nc1cccc2c1C(=O)N(CC(=O)N1CCN(c3ncnc4sccc34)CC1)C2=O)c1ccc(Cl)s1` [Example 12], for which the melting point came out at 277 °C.

The molecule `O=C(Nc1cccc2c1C(=O)N(CC(=O)N1CCC(CO)CC1)C2=O)c1ccc(Cl)s1` [Example 36, 5-Chloro-N-(2-{2-[4-(hydroxymethyl)piperidino]-2-oxoethyl}-1,3-dioxo-2,3-dihydro-1H-isoindol-4-yl)-2-thiophenecarboxamide] had a melting point of 198 °C.

The molecule `O=C(Nc1cccc2c1C(=O)N(CC(=O)N1CCN(c3cnccn3)CC1)C2=O)c1ccc(Cl)s1` [Example 6] returned a melting point of 237 °C.

For `O=C(Nc1cccc2c1C(=O)N(C1CCN(c3ccncc3)CC1)C2=O)c1ccc(Cl)s1` [Example 63, 5-Chloro-N-{1,3-dioxo-2-[1-(4-pyridinyl)-4-piperidinyl]-2,3-dihydro-1H-isoindol-4-yl}-2-thiophenecarboxamide], the melting point is 214 °C.

`Nc1cnccc1N1CCN(C(=O)CN2C(=O)c3cccc(NC(=O)c4ccc(Cl)s4)c3C2=O)CC1` [Example 27] displayed a melting point of 178 °C.

The molecule `O=C(Nc1cccc2c1C(=O)N(CC(=O)N1CCN(c3ccc4c(c3)OCO4)CC1)C2=O)c1ccc(Cl)s1` [Example 32] returned a melting point of 203 °C.

With `O=C(Nc1cccc2c1C(=O)N(CC(=O)N1CCN(CC(=O)N3CCOCC3)CC1)C2=O)c1ccc(Cl)s1` [Example 21], the melting point was found to be 230 °C.

`O=C(Nc1cccc2c1C(=O)N(CCC(=O)N1CCN(c3ccncc3)CC1)C2)c1ccc(Cl)s1` (as salt: TFA) [Example 88] yielded a melting point of 118 °C.

The molecule `Cc1cccc(N2CCN(C(=O)CN3C(=O)c4cccc(NC(=O)c5ccc(Cl)s5)c4C3=O)CC2)c1` [Example 8] came in with a melting point of 136 °C.

The molecule `COCCN1CCN(C(=O)CN2C(=O)c3cccc(NC(=O)c4ccc(Cl)s4)c3C2=O)CC1` [Example 22] showed a melting point of 158 °C.

Molecule `CN(C)C(=O)CN1CCN(C(=O)CN2C(=O)c3cccc(NC(=O)c4ccc(Cl)s4)c3C2=O)CC1` [Example 17] showed a melting point of 189 °C.

In turn, `O=C(CN1C(=O)c2cccc(NC(=O)c3ccc(Cl)s3)c2C1=O)NCC1CCN(c2ccncc2)CC1` [Example 28] returned a melting point of 256 °C.

`O=C(Nc1cccc2c1C(=O)N(CC(=O)N1CCC(NCc3cccnc3)CC1)C2=O)c1ccc(Cl)s1` [Example 24] displayed a melting point of 220 °C.

Molecule `O=C(Nc1cccc2c1C(=O)N(CC(=O)N1CCN(c3cccc4[nH]ccc34)CC1)C2=O)c1ccc(Cl)s1` [Example 10] displayed a melting point of 209 °C.

`O=C(Nc1cccc2c1C(=O)N(CC(=O)N1CCN(CCCN3CCCCC3)CC1)C2=O)c1ccc(Cl)s1` [Example 20] yielded a melting point of 104 °C.

For `CC(C)NC(=O)CN1CCN(C(=O)CN2C(=O)c3cccc(NC(=O)c4ccc(Cl)s4)c3C2=O)CC1` [Example 16], the melting point turned out to be 124 °C.

`O=C(Nc1cccc2c1C(=O)N(CCC(=O)N1CCN(c3ccncc3)CC1)C2=O)c1ccc(Cl)s1` [Example 5, 5-Chloro-N-(1,3-dioxo-2-{3-oxo-3-[4-(4-pyridinyl)piperazino]propyl}-2,3-dihydro-1H-isoindol-4-yl)-2-thiophenecarboxamide] displayed a melting point of 167 °C.

The molecule `O=C(Nc1cccc2c1CN(CC(=O)N1CCC(CO)CC1)C2=O)c1ccc(Cl)s1` [Example 92] gave a melting point of 209 °C.
